Each block holds one compound with its values, some of them ahead of it.
Columns and labels:
[1] = tested on: Orobanche cumana Wallr. seeds (race F; seed lots IN146 and IN153); assay: Germination of preconditioned Orobanche cumana seeds on glass fiber filter paper in petri dishes; format: in vivo; conditions: mean, N = 5 × 100 seeds, re-transformed data; for Germination (%): seed lot IN146 raceF, examined 10 days later
Description: The effect of compounds of formula (I) on germination of Orobanche cumana Wallr. seeds was evaluated on glass fiber filter paper (GFFP) in petri dishes. Seeds were preconditioned at moisture and suitable temperature to become responsive to the specific chemical germination stimulants.
Test compounds were dissolved in DMSO (10 000 mg 1^−1) and stored at room temperature in a desiccators with desiccants. The stock solutions were dissolved with deionised water to the appropriate final test concentration.
Seeds of O. cumana race ‘F’ were collected from sunflower fields in Manzanilla (Seville, Spain) in 2006 (seed lot IN146) and 2008 (seed lot IN153) and stored at room temperature. To separate seeds from heavy organic debris, a modified sucrose floatation technique as described by Hartman & Tanimonure (Plant Disease (1991), 75, p. 494) was applied. Seeds were filled into a separation funnel and stirred in water. When seeds floated to the surface, the water fraction containing heavy debris was discarded. Seeds were re-suspended in 2.5M sucrose solution (specific gravity of 1.20) and heavy debris was allowed to settle down for 60 min. After removing debris, seeds were disinfected in 1% sodium hypochlorite solution and 0.025% (v/v) Tween 20 for 2 min. The seeds were decanted onto two layers of cheesecloth, rinsed with sterile deionised water and re-suspended in sterile deionised water. Two ml of the seed suspension containing approximately 150-400 seeds were spread evenly on two layers of sterile glass fiber filter paper disc ([…]) in Petri dishes (Ø9 cm). After wetting the discs with 3 ml sterile deionised water, petri dishes were sealed with parafilm. Seeds were incubated for 10 days at 20° C. in the dark for seed conditioning. The upper disc with conditioned seeds was briefly dried, transferred to a petri dish lined with a dry GFFP disc, and wetted with 6 ml of the appropriate test solution. The compounds of formula (I) were tested at concentrations of 0.001, 0.01, and 0.1 mg 1^−1. The strigolactone analogue GR24 (commercially available as a mixture of isomers) was included as positive control and 0.001% DMSO as negative control. All treatments were tested in five replicates. Seeds were re-incubated at 20° C. in the dark and examined for germination 10 days later. The radicles of germinated seeds were stained for 5 min with blue ink (MIGROS, Switzerland) in 5% acetic acid according to Long et al. (Seed Science Research (2008), 18, p. 125). After staining, seeds were scanned using a flatbed scanner with an optical resolution of 1200 dpi (PULSTEK, OpticPro ST28) or photographed using a camera stand mounted with a digital SLR camera (Canon EOS 5D). Germination of 100 seeds per replicate was evaluated on digital images. Seeds were considered germinated when the radicle protruded from the seed coat. SAS statistical software package version 9.1 was used for analysis of variance (GLM procedure) and multiple comparisons of treatment means (Sidak t-test) based on arcsine transformed percentage germination data.

[2] = Table 6, seed lot IN146, race F, 0.001 mg l^−1
[3] = Table 6, seed lot IN146, race F, 0.01 mg l^−1
[4] = Table 6, seed lot IN146, race F, 0.1 mg l^−1
[5] = Table 7, seed lot IN153, race F, 0.001 mg l^−1
[6] = Table 7, seed lot IN153, race F, 0.01 mg l^−1
[7] = Table 7, seed lot IN153, race F, 0.1 mg l^−1
[8] = 0.001 mg l^−1, lot IN146, raceF, Table 4
[9] = 0.01 mg l^−1, lot IN146, raceF, Table 4
[10] = 0.1 mg l^−1, lot IN146, raceF, Table 4
[11] = Table 8, seed lot IN153, race F, 0.001 mg l^−1
[12] = Table 8, seed lot IN153, race F, 0.01 mg l^−1
[13] = Table 8, seed lot IN153, race F, 0.1 mg l^−1

Compound: CC1=CC(OC=C2C(=O)NC3c4ccc(F)cc4CC23)OC1=O (stereo not shown) [Compound A9]
Germination % at concentration of 0.001 mg l^−1 [1, 2]: 90.2 ab % | Germination % at concentration of 0.01 mg l^−1 [1, 3]: 85.2 abc % | Germination % at concentration of 0.1 mg l^−1 [1, 4]: 71.5 bc %

Compound: CC1=CC(OC=C2C(=O)N(c3ccccc3)C3c4ccccc4CC23)OC1=O (stereo not shown) [Compound A17]
Germination % at concentration of 0.001 mg l^−1 [1, 5]: 99.2 a % | Germination % at concentration of 0.01 mg l^−1 [1, 6]: 98.9 a % | Germination % at concentration of 0.1 mg l^−1 [1, 7]: 99.4 a %

Compound: CC1=CC(OC=C2C(=O)NC3c4cccc(C)c4CC23)OC1=O (stereo not shown) [Compound A5]
Germination % at concentration of 0.001 mg l^−1 [1, 8]: 74.5 abc % | Germination % at concentration of 0.01 mg l^−1 [1, 9]: 90 a % | Germination % at concentration of 0.1 mg l^−1 [1, 10]: 85.5 ab %

Compound: COc1ccc(N2C(=O)C(=COC3C=C(C)C(=O)O3)C3Cc4ccccc4C32)cc1 (stereo not shown) [Compound A20]
Germination % at concentration of 0.001 mg l^−1 [1, 5]: 2.0 c % | Germination % at concentration of 0.01 mg l^−1 [1, 6]: 14.4 c % | Germination % at concentration of 0.1 mg l^−1 [1, 7]: 89.3 ab %

Compound: C=CCN1C(=O)C(=COC2C=C(C)C(=O)O2)C2Cc3ccccc3C21 (mixture of isomers) [A29*]
Germination % at concentration of 0.001 mg l^−1 [1, 11]: 90.3 abc % | Germination % at concentration of 0.01 mg l^−1 [1, 12]: 94.5 abc % | Germination % at concentration of 0.1 mg l^−1 [1, 13]: 94.0 abc %

Compound: CC1=CC(OC=C2C(=O)N(c3nccs3)C3c4ccccc4CC23)OC1=O (stereo not shown) [Compound A26]
Germination % at concentration of 0.001 mg l^−1 [1, 11]: 93.9 abc % | Germination % at concentration of 0.01 mg l^−1 [1, 12]: 95.4 ab % | Germination % at concentration of 0.1 mg l^−1 [1, 13]: 93.9 abc %

Compound: CC(=O)OC1c2ccccc2C2C1C(=COC1C=C(C)C(=O)O1)C(=O)N2C(=O)OC(C)(C)C (mixture of isomers) [A24*]
Germination % at concentration of 0.001 mg l^−1 [1, 11]: 44.8 def % | Germination % at concentration of 0.01 mg l^−1 [1, 12]: 86.4 abcd % | Germination % at concentration of 0.1 mg l^−1 [1, 13]: 96.8 a %

Compound: CC1=CC(OC=C2C(=O)NC3c4c(C)cccc4CC23)OC1=O (stereo not shown) [Compound A8]
Germination % at concentration of 0.001 mg l^−1 [1, 2]: 72.9 bc % | Germination % at concentration of 0.01 mg l^−1 [1, 3]: 84.4 abc % | Germination % at concentration of 0.1 mg l^−1 [1, 4]: 69.9 bc %

Compound: CC1=CC(OC=C2C(=O)NC3c4c(C#N)cccc4CC23)OC1=O (mixture of isomers) [A12*]
Germination % at concentration of 0.001 mg l^−1 [1, 8]: 0 e % | Germination % at concentration of 0.01 mg l^−1 [1, 9]: 4.2 e % | Germination % at concentration of 0.1 mg l^−1 [1, 10]: 32 bcde %

Compound: GR-24
Germination % at concentration of 0.001 mg l^−1 ([1]; Table 5, seed lot IN146, race F, 0.001 mg l^−1): 21.2 de % | Germination % at concentration of 0.01 mg l^−1 ([1]; Table 5, seed lot IN146, race F, 0.01 mg l^−1): 33.3 cd % | Germination % at concentration of 0.1 mg l^−1 ([1]; Table 5, seed lot IN146, race F, 0.1 mg l^−1): 45.9 bcd % | Germination % at concentration of 0.001 mg l^−1 [1, 2]: 17.5 d % | Germination % at concentration of 0.01 mg l^−1 [1, 3]: 61.4 c % | Germination % at concentration of 0.1 mg l^−1 [1, 4]: 86.6 ab % | Germination % at concentration of 0.001 mg l^−1 [1, 5]: 89.5 ab % | Germination % at concentration of 0.01 mg l^−1 [1, 6]: 97.2 a % | Germination % at concentration of 0.1 mg l^−1 [1, 7]: 96.2 ab % | Germination % at concentration of 0.001 mg l^−1 [1, 11]: 84.1 abcde % | Germination % at concentration of 0.01 mg l^−1 [1, 12]: 94.1 abc % | Germination % at concentration of 0.1 mg l^−1 [1, 13]: 97.0 a %

Compound: CC1=CC(OC=C2C(=O)NC3c4ccc(Cl)cc4CC23)OC1=O (stereo not shown) [Compound A10]
Germination % at concentration of 0.001 mg l^−1 [1, 8]: 81.3 abc % | Germination % at concentration of 0.01 mg l^−1 [1, 9]: 84.0 ab % | Germination % at concentration of 0.1 mg l^−1 [1, 10]: 85.1 ab %

Compound: CC1=CC(OC=C2C(=O)N(c3ccc(C#N)cn3)C3c4ccccc4CC23)OC1=O (mixture of isomers) [A16*]
Germination % at concentration of 0.001 mg l^−1 [1, 11]: 7.8 fg % | Germination % at concentration of 0.01 mg l^−1 [1, 12]: 60.6 cde % | Germination % at concentration of 0.1 mg l^−1 [1, 13]: 88.2 abc %

melting point: 130 to 135 °C
Compound: CC1=CC(O/C=C2/C(=O)N(C)C3c4ccccc4C[C@H]23)OC1=O (stereo in doubt) [Compound P3, 1-Methyl-(3aR*,8bS*,5′R*)-3-[1-(4-Methyl-5-oxo-2,5-dihydro-furan-2-yloxy)-meth-(E)-ylidene]-3,3a,4,8b-tetrahydro-1H-indeno[1,2-b]pyrrol-2-one]
Germination (%) ([1]; 0.001 mg l^−1): 68% | Germination (%) ([1]; 0.01 mg l^−1): 82.4% | Germination (%) ([1]; 0.1 mg l^−1): 84%

Compound: CC1=CC(OC=C2C(=O)N(c3ccc(C(F)(F)F)cc3)C3c4ccccc4CC23)OC1=O (mixture of isomers) [A19*]
Germination % at concentration of 0.001 mg l^−1 [1, 11]: 71.5 abcde % | Germination % at concentration of 0.01 mg l^−1 [1, 12]: 92.2 abc % | Germination % at concentration of 0.1 mg l^−1 [1, 13]: 96.4 a %

Compound: CC1=CC(OC=C2C(=O)N(c3ccc(Cl)cc3)C3c4ccccc4CC23)OC1=O (stereo not shown) [Compound A18]
Germination % at concentration of 0.001 mg l^−1 [1, 5]: 89.8 ab % | Germination % at concentration of 0.01 mg l^−1 [1, 6]: 99.1 a % | Germination % at concentration of 0.1 mg l^−1 [1, 7]: 99.1 a %

Compound: COc1ccc2c(c1)CC1C(=COC3C=C(C)C(=O)O3)C(=O)NC21 (stereo not shown) [Compound A4]
Germination % at concentration of 0.001 mg l^−1 [1, 5]: 98.9 a % | Germination % at concentration of 0.01 mg l^−1 [1, 6]: 95.8 ab % | Germination % at concentration of 0.1 mg l^−1 [1, 7]: 99.0 a %
